Results on ten molecules are retold here after ChEMBL document CHEMBL3046900, “Synthesis and Fungitoxic Activity of N-Cinnamoyl--Amino Acid Esters” (2000).

Common to all, as to format: functional
Experiment [1] has as its system Pythium. Kind of experiment: Fungitoxic activity against Pythium sp. assessed as mycelial growth inhibition at 100 ppm after 3 days. Conditions: 72 h, read-out: GI.
Experiment [2] relates to Athelia rolfsii. Kind of experiment: Fungitoxic activity against Athelia rolfsii assessed as mycelial growth inhibition at 100 ppm after 3 days. The note with it: Agroathelia rolfsii, 72 h; read-out: GI.
For experiment [3], the system named is Athelia rolfsii. Kind of experiment: Fungitoxic activity against Athelia rolfsii assessed as mycelial growth inhibition at 10 ppm after 3 days. The note with it: Agroathelia rolfsii, 72 h; read-out: GI.
In experiment [4] the test system is Pythium. Kind of experiment: Fungitoxic activity against Pythium sp. assessed as mycelial growth inhibition at 10 ppm after 3 days. The note with it: 72 h, read-out: GI.

Turning to `CCCOC(=O)[C@H](C)NC(=O)/C=C/c1ccc(C(C)C)cc1`, the results for the inhibition of growth at 100 ppm with Pythium [1] and in the experiment on Athelia rolfsii [2] were 52% and 53%, respectively. Moreover, the figures for the inhibition of growth at 10 ppm with Athelia rolfsii [3] and in the experiment with Pythium [4] were 20% and 4%, respectively.
For `CCOC(=O)[C@H](C)NC(=O)/C=C/c1ccc(Cl)cc1Cl` the same measures were 55%, 52%, 12% and 0%.
The like results for `CCCOC/C(=N\c1ccc(Cl)cc1C(F)(F)F)n1ccnc1` [TRIFLUMIZOLE] were, in that order, 94%, 100%, 64% and 71%.
Take `CC(C)C[C@H](NC(=O)/C=C/c1ccc(C(C)C)cc1)C(=O)OC(C)C`: the inhibition of growth at 100 ppm was 53% in the experiment with Pythium [1] and 56% in the experiment with Athelia rolfsii [2]. In addition, the inhibition of growth at 10 ppm is 35% with Athelia rolfsii [3] and 25% with Pythium [4].
Take `CC[C@H](C)[C@H](NC(=O)/C=C/c1ccc(Cl)cc1)C(=O)OC`: the inhibition of growth at 100 ppm in the experiment with Pythium [1] worked out at 51%; in the experiment on Athelia rolfsii [2], 65%. Further, the figures for the inhibition of growth at 10 ppm in the experiment with Athelia rolfsii [3] and in the experiment with Pythium [4] were 20% and 0%, respectively.
Turning to `CC(C)OC(=O)CNC(=O)/C=C/c1ccc(Cl)cc1Cl`, the results for the inhibition of growth at 100 ppm in the experiment on Pythium [1] and in the experiment with Athelia rolfsii [2] were 70% and 94%, respectively. For the same molecule, the figures for the inhibition of growth at 10 ppm with Athelia rolfsii [3] and in the experiment with Pythium [4] were 38% and 9%, respectively.
As for `COC(=O)[C@@H](NC(=O)/C=C/c1ccc(Cl)cc1Cl)C(C)C`, the inhibition of growth at 100 ppm in the experiment with Pythium [1] was determined as 67%; in the experiment on Athelia rolfsii [2], 63%. The inhibition of growth at 10 ppm amounted to 24% in the experiment with Athelia rolfsii [3] and 10% with Pythium [4].
Regarding `CCCOC(=O)CNC(=O)/C=C/c1ccc(C(C)C)cc1`, the inhibition of growth at 100 ppm in the experiment on Pythium [1] was 63%; in the experiment with Athelia rolfsii [2], 74%. Also, the inhibition of growth at 10 ppm came out at 23% in the experiment on Athelia rolfsii [3] and 24% in the experiment with Pythium [4].
For `CCOC(=O)[C@@H](NC(=O)/C=C/c1ccc(C(C)C)cc1)C(C)C` the same measures were 67%, 51%, 27% and 10%.
The like results for `COC(=O)[C@@H](NC(=O)/C=C/c1ccc(Cl)cc1)C(C)C` were, in that order, 52%, 53%, 20% and 0%.
